# In US12667570B2, “Small molecule modulators of KSR-bound MEK” (Icahn School of Medicine at Mount Sinai, priority 2020, dated 2026):
# What was measured:
# [1] = tested on: phosphorylated ERK1/2 at residues T202 and Y204 (pERK); assay: Immunoblot of RAS/ERK pathway inhibition; type: cell-based, human; conditions: 1 hour, increasing concentrations
# Experimental: Cells were plated at a density of 300,000 cells per well in 6-well plates in 2 mL of culture medium. 24 hours after seeding, cells were treated with compounds or DMSO at a 1:1000 dilution (0.1% DMSO in final volume). […] Samples were normalized to a protein content of 5 μg/μL in 100 μL total volume, and 20 μL of 6×SDS was added. […] Transfers were confirmed using ponceau red, washed, and then blocked for 1 hour with 5% BSA TBS-T, prior to overnight incubation with primary antibodies including phospho-ERK1/2 T202/Y204 and total ERK1/2 (Cell Signaling Technologies (CST) 9101S and 4695S, respectively) in 5% BSA TBS-T. The next day, blots were washed extensively, and incubated in secondary antibody (Anti-Rabbit IgG HRP-Linked CST 7074S).
# [2] = tested on: HCT 116; assay: Cell proliferation / viability assay under low-adherence conditions; type: cell-based, human
# Experimental: A375, A549, HCT116, and SKMEL-239 cells were plated in Corning Costar Ultra-Low Attachment 96-well plates (Reference number 3434). After 24 hours of incubation at 37° C., cells were treated with inhibitors (0.1% DMSO in final volume). Cells were grown for five days, and resazurin sodium salt was added at a final concentration of 0.01 μg/μL. Fluorescence was measured using a Molecular Devices SpectraMax M5 spectrophotometer after a 4-24-hour incubation with resazurin solution. Technical triplicate values were averaged for each experiment, and biological replicate values are represented as average+/−standard deviation. For each cell line, log EC50 values of inhibitors were statistically compared using the extra sum-of-squares F test in GraphPad Prism 8 (FIG. 57, 58, 67, 68, 69).
# [3] = tested on: MEK1 and MEK2; assay: In vitro kinase profiling, direct binding assays, MEK1/MEK2; conditions: 1 μM
# Description: (§1) FIG. 65 Trametiglue targets both KSR-MEK and RAF-MEK with unprecedented potency and selectivity via unique interfacial binding interactions.
# [4] = tested on: MEK1 and MEK2; assay: In vitro substrate phosphorylation assays, MEK1/MEK2; type: biochemical; conditions: panel of active kinases
# Description: as §1
# [5] = biological target: T1, BRAF-MEK1 complex (Homo sapiens, UniProt P15056+Q02750); assay: Co-immunoprecipitation via endogenous MEK1 from HCT116 cells, BRAF; type: cell-based; conditions: 200 nM, 1 hour, relative to DMSO
# T1 construct: IP/WB of endogenous MEK1 from HCT116 cells; endogenous in cells; host or cells: HCT116
# [6] = tested on: isolated BRAF or CRAF; assay: In vitro kinase profiling, direct binding assays, BRAF/CRAF; conditions: 1 μM
# Description: as §1
# [7] = tested on: KRAS-G12S A549 cells; assay: Long-term clonogenic assay; type: cell-based, human; conditions: 10 nM final concentration, in comparison to amide-linker compounds (1, 3)
# Experimental: Cells were plated at a density of 6,000 cells per well in 6-well plates in 3 mL of culture medium. Twenty-four hours after seeding, compounds dissolved in DMSO or DMSO-only vehicles were added directly to the culture media at a 1:1000 dilution. Following 10 days of culture, cells were washed 2× in PBS, fixed in ice-cold methanol for 10 minutes, stained with crystal-violet at room temperature for 10 minutes, and subsequently washed three times in water. Plates were allowed to dry overnight before imagining with an Epson V600 scanner.
# [8] = tested on: BRAF and CRAF phosphorylation of MEK1; assay: In vitro phosphorylation of MEK1 by upstream kinases; type: biochemical; conditions: MEK1 as substrate
# Description: as §1
# [9] = biological target: T2, mouse KSR1-luc (KSR-bound MEK) (UniProt Q02750+Q61097); assay: NanoBRET in-cell steady-state IC50 (competition with tram-bo tracer), KSR1-luc; type: binding
# T2 construct: expressed in transfected cells; host or cells: HEK293T
# [10] = biological target: KSR1-MEK1 complex (UniProt Q02750+Q61097, P775N); assay: Co-immunoprecipitation via endogenous MEK1 from HCT116 cells, FLAG-KSR1; type: cell-based, mouse KSR1; conditions: 200 nM, 1 hour
# [11] = biological target: T3, MEK1-luc (Homo sapiens, UniProt Q02750); assay: NanoBRET in-cell steady-state IC50 (competition with tram-bo tracer), MEK1-luc; conditions: IC50 MEK1-luc versus KSR1-luc
# [12] = biological target: BRAF-MEK1 complex (Homo sapiens, UniProt P15056+Q02750, R662A); assay: Co-immunoprecipitation via endogenous MEK1 from HCT116 cells, BRAF; type: cell-based; conditions: 200 nM, 1 hour
# [13] = biological target: T3, MEK1-luc; assay: NanoBRET washout experiment, intracellular residence time, MEK1-luc; type: binding; conditions: BRET build-up with 1 μM tram-bo, […] time course
# Experimental: (§2) Specifically, transfections of MEK1-luc and KSR1-luc, and construction of the drug transfer plates were carried out as mentioned above. For washout experiments, cells were first removed from adherent plates by trypsin treatment. Following, cells were harvested, spun, and resuspended in Opti-MEM (270 μL total) in centrifuge tubes at 450,000 cells/tube.
# [14] = biological target: KSR1-luc (KSR-bound MEK) (UniProt Q02750+Q61097); assay: NanoBRET washout experiment, intracellular residence time, KSR1-luc; type: binding, mouse; conditions: BRET build-up with 1 μM tram-bo, […] time course
# Experimental: as §2
# [15] = biological target: T4, isolated MEK1 (Oryctolagus cuniculus, UniProt P29678, S298N/S299K/Y300F); assay: Bio-layer interferometry (BLI), isolated MEK1; type: binding, rabbit; conditions: read-out: dissociation constant (KD), isolated MEK1
# T4 construct: rabbit MEK1 (residues 35-393; Uniprot ID: P29678); hexahistidine tag with TEV-cleavage site (N); made in house; host or cells: SF21 insect cells (baculovirus)
# Experimental: (§3) BLI measurements were performed using an Octet Red96 (Forte Bio, Inc.) system. All experiments were conducted at 25° C. with shaking at 1000 rpm, and in a buffer containing 20 mM Hepes pH 7.5, 200 mM NaCl, 1 mM ATP, 5 mM MgCl2, 0.02% Tween-20, 1% DMSO. […] This amount of immobilization typically achieved 1.5-2.0 nm binding signal. Biosensors were then washed in buffer, treated in a solution of biocytin for 3 min, and then again washed extensively to achieve a normalized baseline signal of ˜0 nm. Following, for kinetic analysis, biosensors were dipped in solutions of free MEK1, BRAF:MEK1, KSR1:MEK1, or KSR2:MEK1. Association was measured for 10 or 15 minutes, following a dissociation phase in buffer of 15 minutes. […] All experiments were performed at least three independent times, with raw data processed and analyzed using global fit binding models in Fortebio software to derive KD (M), Kon(1/M·s), and Kdis (1/s) values. […] One-to-one binding models provided a high agreement with the measured binding signals based on chi-squared and R-squared values. Raw data and fitting, mean and standard deviation determinations, as well as statistical analysis, for KD, kon(1/M·s), kdis(1/s), and τ(min) are included in FIG. 71.
# [16] = biological target: T5, KSR2-MEK1 (UniProt P29678+Q6VAB6, S298N/S299K/Y300F); assay: Bio-layer interferometry (BLI), KSR2-MEK1; type: binding, human KSR2; rabbit MEK1; conditions: read-out: dissociation constant (KD), KSR2-MEK1
# T5 construct: human KSR2 (residues 634-950; Uniprot ID: Q6VAB6); rabbit MEK1 (residues 35-393; Uniprot ID: P29678); hexahistidine tag with TEV-cleavage site (N); made in house; host or cells: SF21 insect cells (baculovirus)
# Experimental: as §3
# [17] = biological target: T6, KSR1-MEK1 (UniProt P29678+Q8IVT5, S298N/S299K/Y300F); assay: Bio-layer interferometry (BLI), KSR1-MEK1; type: binding, human KSR1; rabbit MEK1; conditions: read-out: dissociation constant (KD), KSR1-MEK1
# T6 construct: human KSR1 (residues 591-899; Uniprot ID:Q8IVT5); rabbit MEK1 (residues 35-393; Uniprot ID: P29678); hexahistidine tag with TEV-cleavage site (N); made in house; host or cells: SF21 insect cells (baculovirus)
# Experimental: as §3
# [18] = biological target: T7, BRAF-MEK1 (Oryctolagus cuniculus, UniProt P29678, S298N/S299K/Y300F); assay: Bio-layer interferometry (BLI), BRAF-MEK1; type: binding, human BRAF; rabbit MEK1; conditions: read-out: dissociation constant (KD), MEK1-BRAF
# T7 construct: human BRAF (residues 432-726; Uniprot ID: P15056); rabbit MEK1 (residues 35-393; Uniprot ID: P29678); hexahistidine tag with TEV-cleavage site (N); made in house; host or cells: SF21 insect cells (baculovirus)
# Experimental: as §3
# [19] = biological target: T8, human KSR1-luc (Homo sapiens, UniProt Q02750+Q8IVT5); assay: Tram-bo BRET buildup curves, KSR1-luc; type: binding
# T8 construct: expressed in transfected cells; host or cells: HEK293T
# Experimental: (§4) Human c-terminal NanoLuc fusions versions of ARAF (Uniprot P10398), BRAF (UniProt P15056), CRAF (Uniprot P04049), KSR1 (Uniprot Q8IVT5), and KSR2 (Uniprot Q6VAB6) were transfected as mentioned above at a concentration of 0.1 μg/mL in combination with 9.9 μg/mL of carrier DNA. All RAF constructs from Promega. […] A 20× tram-bo solution was added to each well to give final concentrations of 4, 1, 0.5, 0.1, 0.05, 0.01, 0.001, 0.0001 μM. […] All data were analyzed using Prism 8 (GraphPad).
# [20] = biological target: T9, human KSR2-luc (Homo sapiens, UniProt Q02750+Q6VAB6); assay: Tram-bo BRET buildup curves, KSR2-luc; type: binding
# T9 construct: expressed in transfected cells; host or cells: HEK293T
# Experimental: as §4
# [21] = tested on: ARAF-luc, BRAF-luc, and CRAF-luc; assay: Tram-bo BRET buildup curves, RAF family; type: binding, human; conditions: in cells
# Experimental: as §4
# [22] = HCT 116, low-adherence conditions
# [23] = BRET buildup, increasing tram-bo
# T6 sequence (Q8IVT5 591-899): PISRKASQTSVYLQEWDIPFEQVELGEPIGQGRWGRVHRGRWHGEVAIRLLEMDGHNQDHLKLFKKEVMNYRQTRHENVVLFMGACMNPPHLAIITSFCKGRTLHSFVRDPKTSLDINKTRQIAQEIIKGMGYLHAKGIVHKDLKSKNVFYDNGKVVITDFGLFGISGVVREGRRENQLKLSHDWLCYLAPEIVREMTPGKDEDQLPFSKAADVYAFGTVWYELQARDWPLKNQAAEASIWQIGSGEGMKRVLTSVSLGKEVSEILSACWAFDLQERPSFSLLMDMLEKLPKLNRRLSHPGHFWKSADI
# T6 sequence (P29678 35-393 S298N/S299K/Y300F): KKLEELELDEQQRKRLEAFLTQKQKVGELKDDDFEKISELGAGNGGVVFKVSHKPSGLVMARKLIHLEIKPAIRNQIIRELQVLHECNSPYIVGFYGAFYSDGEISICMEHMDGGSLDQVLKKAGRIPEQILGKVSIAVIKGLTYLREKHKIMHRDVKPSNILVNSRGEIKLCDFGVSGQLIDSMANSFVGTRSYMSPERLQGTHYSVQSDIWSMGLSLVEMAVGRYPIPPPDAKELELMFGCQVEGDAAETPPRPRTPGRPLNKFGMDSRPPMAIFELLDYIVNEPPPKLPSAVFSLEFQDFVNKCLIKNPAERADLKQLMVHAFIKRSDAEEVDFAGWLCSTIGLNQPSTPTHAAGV
# T5 sequence (Q6VAB6 634-950): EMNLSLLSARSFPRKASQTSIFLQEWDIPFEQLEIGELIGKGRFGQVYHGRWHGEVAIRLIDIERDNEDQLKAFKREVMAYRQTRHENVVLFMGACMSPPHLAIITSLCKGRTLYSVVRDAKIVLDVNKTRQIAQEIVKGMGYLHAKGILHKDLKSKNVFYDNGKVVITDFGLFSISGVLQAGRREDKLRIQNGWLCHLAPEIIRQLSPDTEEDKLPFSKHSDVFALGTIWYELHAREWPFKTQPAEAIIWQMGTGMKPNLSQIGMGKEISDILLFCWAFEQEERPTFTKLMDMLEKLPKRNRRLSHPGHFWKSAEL
# T5 sequence (P29678 35-393 S298N/S299K/Y300F): as the sequence (P29678 35-393 S298N/S299K/Y300F) above
# T7 sequence (P29678 35-393 S298N/S299K/Y300F): as above
# T4 sequence (P29678 35-393 S298N/S299K/Y300F): as above
smiles,measurement,setting,value
"CNS(=O)(=O)Nc1cccc(-n2c(=O)n(C3CC3)c(=O)c3c(Nc4ccc(I)cc4F)n(C)c(=O)c(C)c32)c1 [trametiglue, N-(3-(3-Cyclopropyl-5-((2-fluoro-4-iodophenyl)amino)-6,8-dimethyl-2,4,7-trioxo-3,4,6,7-tetrahydropyrido[4,3-d]pyrimidin-1(2H)-yl)phenyl)methylaminosulfonamide]","inhibition of RAS-MAPK signaling measured by pERK, relative to trametinib",[1],higher potency inhibitor of RAS-MAPK signaling
same,improvement in potency relative to CH5126766,[2]; [22],~200 fold
same,improvement in potency relative to trametinib,[2]; [22],approximately 7 fold
same,IC50,"[2]; Homo sapiens, HCT-116, 120 h, low-adherence conditions, five days",0.07 ± 0.04 nM
same,selectivity in kinase binding experiments,[3],strong selectivity towards MEK1 and MEK2
same,inhibition of MEK1 and MEK2 substrate phosphorylation,[4],inhibited MEK1 and MEK2
same,pulldown of wild-type BRAF via endogenous MEK1,[5],markedly enhanced capture of BRAF
same,direct interaction with isolated BRAF or CRAF,[6],no direct interactions
same,growth inhibition in clonogenic assay,[7],enhanced and durable growth inhibition
same,inhibition of MEK1 phosphorylation by upstream kinases,[8],inhibition of both BRAF and CRAF phosphorylation of MEK1
same,potency and off-rate kinetics compared with trametinib,"[9]; KSR-luc or MEK-luc reporters, steady-state and washout",retained similar potency and off-rate kinetics as trametinib
CNS(=O)(=O)Nc1nccc(Cc2c(C)c3ccc(Oc4ncccn4)cc3oc2=O)c1F [CH5126766],pulldown of wild-type BRAF via endogenous MEK1,[5],enhances interactions between endogenous BRAF and MEK1
O=C(c1ccc(F)c(F)c1Nc1ccc(I)cc1F)N1CC(O)([C@@H]2CCCCN2)C1 [cobimetinib],pulldown of KSR1 mutant K1 (P775N) via endogenous MEK1,[10],did not alter complex stability
same,difference in potency between KSR1-luc and MEK1-luc,[11],~20 fold
same,pulldown of BRAF mutant B2 (R662A) via endogenous MEK1,[12],did not alter complex stability
same,dissociation kinetics after washout on MEK1-luc,[13],dissociated more readily
same,IC50 on KSR1-luc compared with MEK1-luc,[9]; competition of tram-bo,more potent IC50 values on KSR1-luc over MEK1-luc
same,dissociation kinetics after washout on KSR1-luc,[14],dissociated more readily
CC(=O)Nc1cccc(-n2c(=O)n(C3CC3)c(=O)c3c(Nc4ccc(I)cc4F)n(C)c(=O)c(C)c32)c1 [trametinib],Kd,[15],131 ± 9.4 nM
same,Kd,[16],70.4 ± 4.4 nM
same,Kd,[17],63.9 ± 4.7 nM
same,Kd,[18],217 ± 3.2 nM
"CCN(C)S(=O)(=O)Nc1cccc(-n2c(=O)n(C3CC3)c(=O)c3c(Nc4ccc(I)cc4F)n(C)c(=O)c(C)c32)c1 [compound 6, N-(3-(3-cyclopropyl-5-((2-fluoro-4-iodophenyl)amino)-6,8-dimethyl-2,4,7-trioxo-3,4,6,7-tetrahydropyrido[4,3-d]pyrimidin-1(2H)-yl)phenyl)-N′-ethyl(methyl)sulfonamide 2,2,2-trifluoroacetate]",growth inhibition in clonogenic assay,[7],enhanced and durable growth inhibition
Cc1c(=O)n(C)c(Nc2ccc(I)cc2F)c2c(=O)n(C3CC3)c(=O)n(-c3cccc(NC(=O)CCOCCOCCNC(=O)CCC4=[N+]5C(=Cc6ccc(-c7ccc[nH]7)n6[B-]5(F)F)C=C4)c3)c12 [tram-bo],"binding to KSR1-luc relative to ARAF-luc, BRAF-luc and CRAF-luc",[19]; [23],~10 fold
same,"BRET binding signal, KSR1-luc",[19]; in cells,strong BRET binding signals
same,"binding to KSR2-luc relative to ARAF-luc, BRAF-luc and CRAF-luc",[20]; [23],~10 fold
same,"BRET binding signal, KSR2-luc",[20]; in cells,strong BRET binding signals
same,"BRET signal, ARAF-luc, BRAF-luc, CRAF-luc",[21],much weaker BRET signals
"Cc1c(=O)n(C)c(Nc2ccc(I)cc2F)c2c(=O)n(C3CC3)c(=O)n(-c3cccc(NS(=O)(=O)NC4CC4)c3)c12 [compound 5, N-(3-(3-cyclopropyl-5-((2-fluoro-4-iodophenyl)amino)-6,8-dimethyl-2,4,7-trioxo-3,4,6,7-tetrahydropyrido[4,3-d]pyrimidin-1(2H)-yl)phenyl)cyclopropylaminosulfonamide]",growth inhibition in clonogenic assay,[7],enhanced and durable growth inhibition
